# Test results taken from patent US20230117470A1, “SUBSTITUTED PYRAZOLE COMPOUNDS AS TOLL RECEPTOR INHIBITORS” (BRISTOL-MYERS SQUIBB COMPANY, priority 2019, published 2023).
# Key:
# Assay type in all cases: cell-based
# human TLR8 = target: T1, human TLR8 (Homo sapiens, UniProt Q9NR97); test: TLR8 inhibition reporter assay (HEK-Blue cells, SEAP reporter, R848 stimulation); details: HEK-Blue cells overexpressing human TLR8, SEAP reporter, R848 15.9 μM
# T1 construct: host or cells: HEK-Blue cells
# T1 sequence (Q9NR97 27-1041): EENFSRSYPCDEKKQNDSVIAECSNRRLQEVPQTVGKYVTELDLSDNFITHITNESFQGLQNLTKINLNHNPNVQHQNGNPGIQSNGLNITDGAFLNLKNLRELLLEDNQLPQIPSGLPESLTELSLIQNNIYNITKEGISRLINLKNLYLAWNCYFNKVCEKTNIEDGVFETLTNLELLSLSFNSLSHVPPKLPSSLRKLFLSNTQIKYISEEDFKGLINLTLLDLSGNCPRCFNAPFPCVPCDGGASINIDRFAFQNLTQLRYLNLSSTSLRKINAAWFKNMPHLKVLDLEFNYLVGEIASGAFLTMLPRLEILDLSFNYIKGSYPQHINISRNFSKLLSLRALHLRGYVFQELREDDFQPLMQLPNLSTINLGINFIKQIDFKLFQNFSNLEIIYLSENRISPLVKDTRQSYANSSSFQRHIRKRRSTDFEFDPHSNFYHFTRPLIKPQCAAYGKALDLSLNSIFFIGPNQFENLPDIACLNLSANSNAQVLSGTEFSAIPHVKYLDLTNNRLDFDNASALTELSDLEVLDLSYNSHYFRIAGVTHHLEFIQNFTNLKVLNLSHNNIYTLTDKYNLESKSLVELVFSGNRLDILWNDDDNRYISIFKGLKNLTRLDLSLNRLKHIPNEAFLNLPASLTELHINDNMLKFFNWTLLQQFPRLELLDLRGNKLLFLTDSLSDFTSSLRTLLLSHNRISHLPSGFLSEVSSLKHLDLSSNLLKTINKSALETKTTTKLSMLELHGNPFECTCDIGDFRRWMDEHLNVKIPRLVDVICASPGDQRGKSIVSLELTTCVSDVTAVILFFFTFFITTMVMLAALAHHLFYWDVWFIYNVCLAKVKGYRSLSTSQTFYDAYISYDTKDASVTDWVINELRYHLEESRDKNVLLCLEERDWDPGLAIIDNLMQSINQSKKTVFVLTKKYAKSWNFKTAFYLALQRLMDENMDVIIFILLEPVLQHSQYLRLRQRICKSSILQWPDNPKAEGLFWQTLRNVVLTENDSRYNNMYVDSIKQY
# Procedure, shortened: (§1)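 Ligand levels differed by receptor: TLR7 got gardiquimod at 7.5 μM, TLR8 got R848 at 15.9 μM, and TLR9 got ODN2006 at 5 nM, each added after a 30-min room-temperature compound exposure. Incubation lasted 22 h at 37° C before colorimetric SEAP detection.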
# human TLR9 = target: T2, human TLR9 (Homo sapiens, UniProt Q9NR96); test: TLR9 inhibition reporter assay (HEK-Blue cells, SEAP reporter, ODN2006 stimulation); details: HEK-Blue cells overexpressing human TLR9, SEAP reporter, ODN2006 5 nM
# T2 construct: host or cells: HEK-Blue cells
# T2 sequence (Q9NR96 26-1032): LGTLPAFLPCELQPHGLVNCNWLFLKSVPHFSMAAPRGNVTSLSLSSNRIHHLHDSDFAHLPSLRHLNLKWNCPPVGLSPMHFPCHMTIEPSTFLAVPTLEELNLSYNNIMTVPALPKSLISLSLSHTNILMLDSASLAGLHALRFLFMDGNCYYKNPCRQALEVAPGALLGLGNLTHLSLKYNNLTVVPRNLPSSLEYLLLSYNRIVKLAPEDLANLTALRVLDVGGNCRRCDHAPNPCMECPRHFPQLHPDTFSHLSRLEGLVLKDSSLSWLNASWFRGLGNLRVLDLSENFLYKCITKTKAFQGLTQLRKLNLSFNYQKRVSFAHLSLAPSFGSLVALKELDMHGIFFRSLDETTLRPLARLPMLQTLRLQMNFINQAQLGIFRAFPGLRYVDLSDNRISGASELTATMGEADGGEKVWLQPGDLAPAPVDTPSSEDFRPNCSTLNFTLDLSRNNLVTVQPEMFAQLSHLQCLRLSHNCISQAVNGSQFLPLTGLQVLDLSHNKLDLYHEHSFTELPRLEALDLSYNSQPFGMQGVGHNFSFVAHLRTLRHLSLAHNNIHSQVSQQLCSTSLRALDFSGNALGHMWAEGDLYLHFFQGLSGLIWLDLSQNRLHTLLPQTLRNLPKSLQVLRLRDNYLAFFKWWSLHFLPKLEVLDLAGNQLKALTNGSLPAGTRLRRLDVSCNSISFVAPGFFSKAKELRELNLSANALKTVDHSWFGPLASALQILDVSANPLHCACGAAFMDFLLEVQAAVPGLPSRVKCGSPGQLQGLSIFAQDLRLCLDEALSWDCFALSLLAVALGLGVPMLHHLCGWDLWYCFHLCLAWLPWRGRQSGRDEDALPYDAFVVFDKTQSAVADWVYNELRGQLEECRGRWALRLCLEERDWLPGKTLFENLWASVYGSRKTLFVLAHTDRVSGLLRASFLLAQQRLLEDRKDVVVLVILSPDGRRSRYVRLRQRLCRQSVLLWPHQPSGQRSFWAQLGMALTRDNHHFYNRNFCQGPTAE
# Procedure, shortened: as §1
# human TLR7 = target: T3, human TLR7 (Homo sapiens, UniProt Q9NYK1); test: TLR7 inhibition reporter assay (HEK-Blue cells, SEAP reporter, gardiquimod stimulation); details: HEK-Blue cells overexpressing human TLR7, SEAP reporter, gardiquimod 7.5 μM
# T3 construct: host or cells: HEK-Blue cells
# T3 sequence (Q9NYK1 27-1049): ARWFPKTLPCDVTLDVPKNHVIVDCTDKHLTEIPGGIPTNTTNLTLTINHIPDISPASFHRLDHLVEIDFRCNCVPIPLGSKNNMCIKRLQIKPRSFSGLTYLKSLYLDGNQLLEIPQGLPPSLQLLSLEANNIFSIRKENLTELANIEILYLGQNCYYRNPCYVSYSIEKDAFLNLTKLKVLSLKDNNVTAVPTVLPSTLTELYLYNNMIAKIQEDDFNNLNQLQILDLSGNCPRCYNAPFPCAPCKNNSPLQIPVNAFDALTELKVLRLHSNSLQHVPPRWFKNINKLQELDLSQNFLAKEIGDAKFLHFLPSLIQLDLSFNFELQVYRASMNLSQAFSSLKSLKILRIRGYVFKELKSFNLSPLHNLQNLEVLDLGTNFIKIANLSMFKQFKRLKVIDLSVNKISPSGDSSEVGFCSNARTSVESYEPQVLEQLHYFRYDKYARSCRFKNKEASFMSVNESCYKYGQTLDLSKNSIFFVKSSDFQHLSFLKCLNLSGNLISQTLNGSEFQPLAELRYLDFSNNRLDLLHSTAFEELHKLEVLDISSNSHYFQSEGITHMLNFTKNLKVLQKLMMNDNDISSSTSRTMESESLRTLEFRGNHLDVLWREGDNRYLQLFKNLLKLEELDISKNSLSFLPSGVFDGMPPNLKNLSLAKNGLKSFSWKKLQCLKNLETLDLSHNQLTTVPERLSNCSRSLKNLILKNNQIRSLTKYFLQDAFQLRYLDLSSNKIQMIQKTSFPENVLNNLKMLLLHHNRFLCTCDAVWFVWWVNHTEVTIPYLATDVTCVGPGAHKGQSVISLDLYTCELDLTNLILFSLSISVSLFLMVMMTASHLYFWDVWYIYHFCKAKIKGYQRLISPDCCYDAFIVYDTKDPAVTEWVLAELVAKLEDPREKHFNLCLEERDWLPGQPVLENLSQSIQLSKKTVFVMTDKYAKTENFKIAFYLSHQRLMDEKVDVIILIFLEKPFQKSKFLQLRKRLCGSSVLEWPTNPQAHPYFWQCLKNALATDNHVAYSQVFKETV
# Procedure, shortened: as §1
SMILES,IC50 (human TLR8) [nM],IC50 (human TLR9) [nM],IC50 (human TLR7) [nM]
Cc1cc(-c2[nH]nc(-c3ncc4c(n3)CCN(C)C4)c2C(C)C)cn2ncnc12 [Example 248],12,14000,8.33
Cc1cc(-c2[nH]nc(C(=O)NC3CNC3)c2C(C)C)cn2ncnc12 [Example 58],1.43,32800,3.01
Cc1cc(-c2[nH]nc(-c3ncc(C4CCN(C(C)C)CC4)cn3)c2C(C)C)cn2ncnc12 [Example 370],1.38,6440,12.4
CC(C)c1c(C(=O)NC2CCN(C(C)C)CC2)n[nH]c1-c1ccc(C#N)c2ncccc12 [Example 40],31.1,18900,29.9
Cc1cc(-c2[nH]nc(C(=O)N[C@H]3CC[C@@H](NC(C)C(C)C)CC3)c2C(C)C)cn2ncnc12 (stereo partly drawn) [Example 99],36.7,3610,1.19
COc1cc(-c2[nH]nc(C(=O)NCC3CCNCC3)c2C(C)C)cn2ncnc12 [Example 62],22.3,> 50000,88.6
Cc1cc(-c2[nH]nc(C(=O)NC[C@H]3CC[C@H](N)CC3)c2C(C)C)cn2ncnc12 [Example 47],0.56,6840,2.92
"COCCN1CCC(c2ccc(-c3n[nH]c(-c4cc(OC)c5ncnn5c4)c3C(C)C)cc2)CC1 [Example 318, 6-(4-isopropyl-3-(4-(1-(2-methoxyethyl)piperidin-4-yl)phenyl)-1H-pyrazol-5-yl)-8-methoxy-[1,2,4]triazolo[1,5-a]pyridine]",0.83,21600,6.23
Cc1cc(-c2[nH]nc(-c3nc4ccc(NC(C)C)cc4s3)c2C(C)C)cn2ncnc12 [Example 258],9.16,29400,36.5
COc1ccc(-c2[nH]nc(C(=O)NC3CCN(C(C)C)CC3)c2C(C)C)cc1OC [Example 34],4.94,> 50000,4.44
COc1cc(-c2[nH]nc(C(=O)NC3CCN(CC4CCOCC4)CC3)c2CC(F)(F)F)cn2ncnc12 [Example 197],2.08,13100,5.35
COc1cc(-c2[nH]nc(-c3cnc(C4CCN(CCCF)CC4)cn3)c2C(C)C)cn2ncnc12 [Example 399],132,> 50000,126
Cc1cc(-c2[nH]nc(-c3ccc(C4CCNCC4)cn3)c2C(C)C)cn2ncnc12 [Example 342],12.6,> 50000,19.6

# More lines, in order of falling IC50 (human TLR8), values ahead:
IC50 (human TLR8) [nM],IC50 (human TLR9) [nM],IC50 (human TLR7) [nM],SMILES
138,> 50000,170,CCCN1CCc2nc(-c3n[nH]c(-c4cc(OC)c5ncnn5c4)c3C(C)C)sc2C1 [Example 260]
60.2,> 50000,119,COCCN1CCc2nc(-c3n[nH]c(-c4cc(C)c5ncnn5c4)c3C(C)C)sc2C1 [Example 266]
54.2,> 50000,3.33,CCC(CC)N[C@H]1CC[C@H](NC(=O)c2n[nH]c(-c3cc(C)c4ncnn4c3)c2C(C)C)CC1 [Example 119]
53.9,> 50000,102,COCCN1CCC(c2cnc(-c3n[nH]c(-c4cc(OC)c5ncnn5c4)c3C(C)C)cn2)CC1 [Example 396]
47.2,> 50000,5.83,Cc1cc(-c2[nH]nc(C(=O)N3CC4CNCC4C3)c2C(C)C)cn2ncnc12 (stereo not drawn) [Example 59]
21.5,3270,2.03,Cc1cc(-c2[nH]nc(C(=O)NC3CCN(CC4CCOCC4)CC3)c2C(C)C)cn2ncnc12 [Example 77]
15.9,9250,13.5,CNC(=O)CN1CCC(c2cnc(-c3n[nH]c(-c4cc(OC)c5ncnn5c4)c3C(C)C)cn2)CC1 [Example 400]
5.96,5370,5.4,Cc1cc(-c2[nH]nc(-c3cncc(N(C)C)c3)c2C(C)C)cn2ncnc12 [Example 238]
2.7,6970,2.08,Cc1cc(-c2[nH]nc(C(=O)NCC3CN(C4COC4)CCO3)c2C(C)C)cn2ncnc12 (stereo not drawn) [Example 142]
2.44,6710,1.69,"Cc1cc(-c2cc(C(=O)NC3CCN(C(C)C)CC3)n[nH]2)cn2ncnc12 [Example 178, N-(1-isopropylpiperidin-4-yl)-5-(8-methyl-[1,2,4]triazolo[1,5-a]pyridin-6-yl)-1H-pyrazole-3-carboxamide]"
1.19,49500,6.32,Cc1cc(-c2[nH]nc(-c3ccc4c(c3)CNCC4)c2C(C)C)cn2ncnc12 [Example 231]
1.01,16600,1.05,"Cc1cc(-c2[nH]nc(-c3ccc4c(c3)CCN(C)C4)c2C(C)C)cn2ncnc12 [Example 235, 6-(4-isopropyl-5-(8-methyl-[1,2,4]triazolo[1,5-a]pyridin-6-yl)-1H-pyrazol-3-yl)-2-methyl-1,2,3,4-tetrahydroisoquinoline]"
